{"source": "patent US9371280B2", "about": "“Substituted pyrrolidine-2-carboxamides” (Hoffmann-La Roche Inc., priority 2012, dated 2016)", "note": "Where a name gives a salt, the structure may show the parent alone."}
{"biological_target": "interaction between p53 and MDM2 proteins (recombinant GST-tagged MDM2) (Homo sapiens, UniProt Q00987)", "sequence (Q00987 whole entry)": "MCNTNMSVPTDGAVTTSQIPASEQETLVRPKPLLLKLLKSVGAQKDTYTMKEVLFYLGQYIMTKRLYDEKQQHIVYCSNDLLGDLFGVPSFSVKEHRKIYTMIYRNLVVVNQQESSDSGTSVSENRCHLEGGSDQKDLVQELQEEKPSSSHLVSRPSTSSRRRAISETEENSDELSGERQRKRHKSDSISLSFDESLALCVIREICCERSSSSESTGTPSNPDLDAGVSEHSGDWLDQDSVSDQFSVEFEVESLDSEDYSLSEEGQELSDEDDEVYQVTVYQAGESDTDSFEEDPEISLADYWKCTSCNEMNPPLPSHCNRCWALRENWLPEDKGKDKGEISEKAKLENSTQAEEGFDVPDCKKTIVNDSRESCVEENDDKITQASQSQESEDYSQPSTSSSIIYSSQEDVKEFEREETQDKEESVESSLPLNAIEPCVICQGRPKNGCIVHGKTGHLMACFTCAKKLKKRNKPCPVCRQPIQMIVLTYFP", "test": "HTRF assay of inhibition of the p53-MDM2 interaction (GST-MDM2 / biotinylated p53 peptide);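 also: FRET read-out from Eu-labelled anti-GST antibody to streptavidin-APC, with 90 nM N-terminally biotinylated p53 peptide and 160 ng/ml GST-MDM2 in Tris-borate saline containing 1 mM DTT, 384-well format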", "assay_type": "binding", "conditions": "HTRF, 0.02% BSA, 37° C. 1 h", "units": {"IC50": "µM"}}
{"smiles": "COc1cc(C(=O)N(C)C[C@H](O)[C@@H](O)[C@H](O)[C@H](O)CO)ccc1NC(=O)[C@@H]1N[C@@H](CC(C)(C)C)[C@](C#N)(c2ccc(Cl)cc2F)[C@H]1c1cccc(Cl)c1F", "note": "[Example 55, (2R,3S,4R,5S)-4-(4-Chloro-2-fluoro-phenyl)-3-(3-chloro-2-fluoro-phenyl)-4-cyano-5-(2,2-dimethyl-propyl)-pyrrolidine-2-carboxylic acid {2-methoxy-4-[methyl-((2S,3R,4R,5R)-2,3,4,5,6-pentahydroxy-hexyl)-carbamoyl]-phenyl}-amide, hydrochloride]", "IC50": 0.0091}
{"smiles": "COc1cc(C(=O)N[C@@H]2[C@@H](O)[C@H](O)[C@@H](CO)O[C@@H]2O)ccc1NC(=O)[C@@H]1N[C@@H](CC(C)(C)C)[C@](C#N)(c2ccc(Cl)cc2F)[C@H]1c1cccc(Cl)c1F", "note": "[Example 56, (2R,3S,4R,5S)-4-(4-Chloro-2-fluoro-phenyl)-3-(3-chloro-2-fluoro-phenyl)-4-cyano-5-(2,2-dimethyl-propyl)-pyrrolidine-2-carboxylic acid [2-methoxy-4-((2S,3R,4R,5S,6R)-2,4,5-trihydroxy-6-hydroxymethyl-tetrahydro-pyran-3-ylcarbamoyl)-phenyl]-amide, hydrochloride]", "IC50": 0.00988}
{"smiles": "COc1cc(C(=O)OCCOCCOCCOCCO)ccc1NC(=O)[C@@H]1N[C@@H](CC(C)(C)C)[C@](C#N)(c2ccc(Cl)cc2F)[C@H]1c1cccc(Cl)c1F", "note": "[Example 57, 4-{[(2R,3S,4R,5S)-4-(4-Chloro-2-fluoro-phenyl)-3-(3-chloro-2-fluoro-phenyl)-4-cyano-5-(2,2-dimethyl-propyl)-pyrrolidine-2-carbonyl]-amino}-3-methoxy-benzoic acid 2-{2-[2-(2-hydroxy-ethoxy)-ethoxy]-ethoxy}-ethyl ester, hydrochloride]", "IC50": 0.0172}
{"smiles": "COc1cc(C(=O)OCCN2CCN(CCOC(=O)c3ccc(NC(=O)[C@@H]4N[C@@H](CC(C)(C)C)[C@](C#N)(c5ccc(Cl)cc5F)[C@H]4c4cccc(Cl)c4F)c(OC)c3)CC2)ccc1NC(=O)[C@@H]1N[C@@H](CC(C)(C)C)[C@](C#N)(c2ccc(Cl)cc2F)[C@H]1c1cccc(Cl)c1F", "note": "[Example 60, 4-{[(2R,3S,4R,5S)-4-(4-Chloro-2-fluoro-phenyl)-3-(3-chloro-2-fluoro-phenyl)-4-cyano-5-(2,2-dimethyl-propyl)-pyrrolidine-2-carbonyl]-amino}-3-methoxy-benzoic acid, 2-[4-(2-hydroxy-ethyl)-piperazin-1-yl]-ethyl ester, dimer]", "IC50": 0.211}
{"smiles": "COc1cc(C(=O)OCCN2CCN(CCO)CC2)ccc1NC(=O)[C@@H]1N[C@@H](CC(C)(C)C)[C@](C#N)(c2ccc(Cl)cc2F)[C@H]1c1cccc(Cl)c1F", "note": "[Example 61, 4-{[(2R,3S,4R,5S)-4-(4-Chloro-2-fluoro-phenyl)-3-(3-chloro-2-fluoro-phenyl)-4-cyano-5-(2,2-dimethyl-propyl)-pyrrolidine-2-carbonyl]-amino}-3-methoxy-benzoic acid 2-[4-(2-hydroxy-ethyl)-piperazin-1-yl]-ethyl ester]", "IC50": 0.0114}
{"smiles": "COc1cc(C(=O)OCC(=O)N2CCN(C)CC2)ccc1NC(=O)[C@@H]1N[C@@H](CC(C)(C)C)[C@](C#N)(c2ccc(Cl)cc2F)[C@H]1c1cccc(Cl)c1F", "note": "[Example 64, 4-{[(2R,3S,4R,5S)-4-(4-Chloro-2-fluoro-phenyl)-3-(3-chloro-2-fluoro-phenyl)-4-cyano-5-(2,2-dimethyl-propyl)-pyrrolidine-2-carbonyl]-amino}-3-methoxy-benzoic acid 2-(4-methyl-piperazin-1-yl)-2-oxo-ethyl ester, hydrochloride]", "IC50": 0.0116}
{"smiles": "COc1cc(C(=O)OCC(N)=O)ccc1NC(=O)[C@@H]1N[C@@H](CC(C)(C)C)[C@](C#N)(c2ccc(Cl)cc2F)[C@H]1c1cccc(Cl)c1F", "note": "[Example 65, 4-{[(2R,3S,4R,5S)-4-(4-Chloro-2-fluoro-phenyl)-3-(3-chloro-2-fluoro-phenyl)-4-cyano-5-(2,2-dimethyl-propyl)-pyrrolidine-2-carbonyl]-amino}-3-methoxy-benzoic acid carbamoylmethyl ester]", "IC50": 0.0129}
{"smiles": "COc1cc(C(=O)OCC(=O)N2CCOCC2)ccc1NC(=O)[C@@H]1N[C@@H](CC(C)(C)C)[C@](C#N)(c2ccc(Cl)cc2F)[C@H]1c1cccc(Cl)c1F", "note": "[Example 66, 4-{[(2R,3S,4R,5S)-4-(4-Chloro-2-fluoro-phenyl)-3-(3-chloro-2-fluoro-phenyl)-4-cyano-5-(2,2-dimethyl-propyl)-pyrrolidine-2-carbonyl]-amino}-3-methoxy-benzoic acid 2-morpholin-4-yl-2-oxo-ethyl ester]", "IC50": 0.00904}
{"smiles": "COc1cc(C(=O)OCC(=O)NCC2COC(C)(C)O2)ccc1NC(=O)[C@@H]1N[C@@H](CC(C)(C)C)[C@](C#N)(c2ccc(Cl)cc2F)[C@H]1c1cccc(Cl)c1F", "note": "(stereo partly drawn) [Example 67, 4-{[(2R,3S,4R,5S)-4-(4-Chloro-2-fluoro-phenyl)-3-(3-chloro-2-fluoro-phenyl)-4-cyano-5-(2,2-dimethyl-propyl)-pyrrolidine-2-carbonyl]-amino}-3-methoxy-benzoic acid [(2,2-dimethyl-[1,3]dioxolan-4-ylmethyl)-carbamoyl]-methyl ester]", "IC50": 0.0118}
{"smiles": "COc1cc(C(=O)OCC(=O)NCC(O)CO)ccc1NC(=O)[C@@H]1N[C@@H](CC(C)(C)C)[C@](C#N)(c2ccc(Cl)cc2F)[C@H]1c1cccc(Cl)c1F", "note": "(stereo partly drawn) [Example 68, 4-{[(2R,3S,4R,5S)-4-(4-Chloro-2-fluoro-phenyl)-3-(3-chloro-2-fluoro-phenyl)-4-cyano-5-(2,2-dimethyl-propyl)-pyrrolidine-2-carbonyl]-amino}-3-methoxy-benzoic acid (2,3-dihydroxy-propylcarbamoyl)-methyl ester]", "IC50": 0.012}
{"smiles": "COc1cc(C(=O)OCC(=O)N[C@@H](CCC(=O)OCc2ccccc2)C(=O)OCc2ccccc2)ccc1NC(=O)[C@@H]1N[C@@H](CC(C)(C)C)[C@](C#N)(c2ccc(Cl)cc2F)[C@H]1c1cccc(Cl)c1F", "note": "[Example 70, (S)-2-[2-(4-{[(2R,3S,4R,5S)-4-(4-Chloro-2-fluoro-phenyl)-3-(3-chloro-2-fluoro-phenyl)-4-cyano-5-(2,2-dimethyl-propyl)-pyrrolidine-2-carbonyl]-amino}-3-methoxy-benzoyloxy)-acetylamino]-pentanedioic acid dibenzyl ester]", "IC50": 0.0564}
{"smiles": "COc1cc(C(=O)OCC(=O)N[C@@H](CCC(=O)O)C(=O)O)ccc1NC(=O)[C@@H]1N[C@@H](CC(C)(C)C)[C@](C#N)(c2ccc(Cl)cc2F)[C@H]1c1cccc(Cl)c1F", "note": "[Example 71, (S)-2-[2-(4-{[(2R,3S,4R,5S)-4-(4-Chloro-2-fluoro-phenyl)-3-(3-chloro-2-fluoro-phenyl)-4-cyano-5-(2,2-dimethyl-propyl)-pyrrolidine-2-carbonyl]-amino}-3-methoxy-benzoyloxy)-acetylamino]-pentanedioic acid]", "IC50": 0.00594}
{"smiles": "COCCOCCOCCOC(=O)COC(=O)c1ccc(NC(=O)[C@@H]2N[C@@H](CC(C)(C)C)[C@](C#N)(c3ccc(Cl)cc3F)[C@H]2c2cccc(Cl)c2F)c(OC)c1", "note": "[Example 72, 4-{[(2R,3S,4R,5S)-4-(4-Chloro-2-fluoro-phenyl)-3-(3-chloro-2-fluoro-phenyl)-4-cyano-5-(2,2-dimethyl-propyl)-pyrrolidine-2-carbonyl]-amino}-3-methoxy-benzoic acid 2-[2-(2-methoxy-ethoxy)-ethoxy]-ethoxycarbonylmethyl ester]", "IC50": 0.0203}
{"smiles": "COCCOCCOCCOCCOC(=O)COC(=O)c1ccc(NC(=O)[C@@H]2N[C@@H](CC(C)(C)C)[C@](C#N)(c3ccc(Cl)cc3F)[C@H]2c2cccc(Cl)c2F)c(OC)c1", "note": "[Example 73, 4-{[(2R,3S,4R,5S)-4-(4-Chloro-2-fluoro-phenyl)-3-(3-chloro-2-fluoro-phenyl)-4-cyano-5-(2,2-dimethyl-propyl)-pyrrolidine-2-carbonyl]-amino}-3-methoxy-benzoic acid 2-{2-[2-(2-methoxy-ethoxy)-ethoxy]-ethoxy}-ethoxycarbonylmethyl ester]", "IC50": 0.0196}
{"smiles": "COc1cc(C(=O)OCC(=O)NCCOCCOCCOCCO)ccc1NC(=O)[C@@H]1N[C@@H](CC(C)(C)C)[C@](C#N)(c2ccc(Cl)cc2F)[C@H]1c1cccc(Cl)c1F", "note": "[Example 75, 4-{[(2R,3S,4R,5S)-4-(4-Chloro-2-fluoro-phenyl)-3-(3-chloro-2-fluoro-phenyl)-4-cyano-5-(2,2-dimethyl-propyl)-pyrrolidine-2-carbonyl]-amino}-3-methoxy-benzoic acid (2-{2-[2-(2-hydroxy-ethoxy)-ethoxy]-ethoxy}-ethylcarbamoyl)-methyl ester]", "IC50": 0.0092}
{"smiles": "COc1cc(C(=O)NCCOCCOCCOCCNC(=O)c2ccc(NC(=O)[C@@H]3N[C@@H](CC(C)(C)C)[C@](C#N)(c4ccc(Cl)cc4F)[C@H]3c3cccc(Cl)c3F)c(OC)c2)ccc1NC(=O)[C@@H]1N[C@@H](CC(C)(C)C)[C@](C#N)(c2ccc(Cl)cc2F)[C@H]1c1cccc(Cl)c1F", "note": "[Example 76, (2R,3S,4R,5S)-4-(4-Chloro-2-fluoro-phenyl)-3-(3-chloro-2-fluoro-phenyl)-4-cyano-5-(2,2-dimethyl-propyl)-pyrrolidine-2-carboxylic acid [4-(2-{2-[2-(2-amino-ethoxy)-ethoxy]-ethoxy}-ethylcarbamoyl)-2-methoxy-phenyl]-amide, dimer]", "IC50": 0.0643}
{"smiles": "COc1cc(C(=O)NCCOCCOCCOCCN)ccc1NC(=O)[C@@H]1N[C@@H](CC(C)(C)C)[C@](C#N)(c2ccc(Cl)cc2F)[C@H]1c1cccc(Cl)c1F", "note": "[Example 77, (2R,3S,4R,5S)-4-(4-Chloro-2-fluoro-phenyl)-3-(3-chloro-2-fluoro-phenyl)-4-cyano-5-(2,2-dimethyl-propyl)-pyrrolidine-2-carboxylic acid [4-(2-{2-[2-(2-amino-ethoxy)-ethoxy]-ethoxy}-ethylcarbamoyl)-2-methoxy-phenyl]-amide]", "IC50": 0.00631}
{"smiles": "C=CCOC(=O)[C@H](CCCCNC(=O)OC(C)(C)C)NC(=O)COC(=O)c1ccc(NC(=O)[C@@H]2N[C@@H](CC(C)(C)C)[C@](C#N)(c3ccc(Cl)cc3F)[C@H]2c2cccc(Cl)c2F)c(OC)c1", "note": "[Example 78, 4-{[(2R,3S,4R,5S)-4-(4-Chloro-2-fluoro-phenyl)-3-(3-chloro-2-fluoro-phenyl)-4-cyano-5-(2,2-dimethyl-propyl)-pyrrolidine-2-carbonyl]-amino}-3-methoxy-benzoic acid ((S)-1-allyloxycarbonyl-5-tert-butoxycarbonylamino-pentylcarbamoyl)-methyl ester]", "IC50": 0.0166}
